Reference: PubChem BioAssay AID1259411 (Chemical Carcinogenesis Research Information System (CCRIS), 2018)
Active and inactive are the calls of the source. How the calls were made is not given here.

System: rodent carcinogenicity bioassays, tumor incidence
Experiment: CCRIS carcinogenicity studies
Outline: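 NCI-built, expert-reviewed records of carcinogenicity and related test outcomes (mutagenicity, tumor promotion/inhibition) compiled from published and report sources, historical span 1985-2011, not updated.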

## CCOC(=O)C(C)Oc1ccc(Oc2nc3ccc(Cl)cc3o2)cc1 (configuration not stated)
Species: Mouse, Strain/Sex: Strain not given in source/Female (50/Group), Route: Oral, Dose: 0, 2.5, 10, 40 ppm in diet for 24 mo, study duration 24 mo, Dose: 0, 2.5, 10, 40 ppm in diet for 24 mo, study duration 24 mo
  carcinogen call: inactive; negative
Species: Mouse, Strain/Sex: Strain not given in source/Male (50/Group), Route: Oral, Dose: 0, 2.5, 10, 40 ppm in diet for 24 mo, study duration 24 mo, Dose: 0, 2.5, 10, 40 ppm in diet for 24 mo, study duration 24 mo
  carcinogen call: inactive; negative
Species: Rat, Strain/Sex: Strain not given in source/Female (60/Group), Route: Oral, Dose: 0, 5, 30, 180 ppm (0; 0.33; 2.00; 11.87 mg/kg) in diet for up to 28 mo, study duration 28 mo, Dose: 0, 5, 30, 180 ppm (0; 0.33; 2.00; 11.87 mg/kg) in diet for up to 28 mo, study duration 28 mo
  carcinogen call: inactive; negative
Species: Rat, Strain/Sex: Strain not given in source/Male (60/Group), Route: Oral, Dose: 0, 5, 30, 180 ppm (0; 0.26; 1.58; 9.43 mg/kg) in diet for up to 28 mo, study duration 28 mo, Dose: 0, 5, 30, 180 ppm (0; 0.26; 1.58; 9.43 mg/kg) in diet for up to 28 mo, study duration 28 mo
  carcinogen call: inactive; negative

## CNC(=O)ON=CC(C)(C)SC
Species: MOUSE, Strain/Sex: B6C3F1/FEMALE, Route: ORAL, Dose: 0, 2, 6 PPM IN DIET, Dose: 0, 2, 6 PPM IN DIET
  carcinogen call: inactive; negative
Species: MOUSE, Strain/Sex: B6C3F1/MALE, Route: ORAL, Dose: 0, 2, 6 PPM IN DIET, Dose: 0, 2, 6 PPM IN DIET
  carcinogen call: inactive; negative
Species: RAT, Strain/Sex: F344/FEMALE, Route: ORAL, Dose: 0, 2, 6 PPM IN DIET, Dose: 0, 2, 6 PPM IN DIET
  carcinogen call: inactive; negative
Species: RAT, Strain/Sex: F344/MALE, Route: ORAL, Dose: 0, 2, 6 PPM IN DIET, Dose: 0, 2, 6 PPM IN DIET
  carcinogen call: inactive; negative

## CC1OCCN1N=O (configuration not stated)
Species: RAT, Strain/Sex: F344/FEMALE, Route: ORAL, Dose: 40 MG/L IN DRINKING WATER FOR 50 WK, Tumor Site: Type of Lesion: LIVER: HEPATOCELLULAR CARCINOMA, HEMANGIOENDOTHELIAL SARCOMA
  carcinogen call: active; positive

## Cc1cc(NS(=O)(=O)c2ccc(N)cc2)no1
Species: RAT, Strain/Sex: CD-1/MALE,FEMALE, Route: ORAL, Dose: 25, 50, 150, 300, 600 MG/KG/D IN DIET FOR 60 WK, Dose: 25, 50, 150, 300, 600 MG/KG/D IN DIET FOR 60 WK, Tumor Site: Type of Lesion: THYROID GLAND: ADENOMA OR NODULES
  carcinogen call: active; positive

## C=CC(=O)OCCCCCC(C)C
Species: MOUSE, Strain/Sex: C3H/MALE, Route: DERMAL, Dose: 25 µL (5% V/V) IN ACETONE APPLIED TO BACK 3 D/WK FOR LIFE (STUDY DURATION: LIFE)
  carcinogen call: inactive; negative

## O=CC=O
Species: MOUSE, Strain/Sex: CD-1/FEMALE, Route: DERMAL, Dose: 0, 50 UMOL/O.1 ML DMSO 2/WK FOR 5 WK FOLLOWED 1 WK LATER BY 0.1 ML ACETONE 2/WK FOR 47 WK (STUDY DURATION: 52 WK)
  carcinogen call: inactive; negative

## O=[N+]([O-])c1ccc2c3ccccc3c3cccc4ccc1c2c43
Species: MOUSE, Strain/Sex: B6C3F1/MALE, Route: INTRAPERITONEAL, Dose: 0, 400 NMOL IN 35 µL DMSO ON DAYS 1 (1/7 TOTAL DOSE), 8 (2/7 TOTAL DOSE), AND 15 (4/7 TOTAL DOSE) AFTER BIRTH (STUDY DUR
  carcinogen call: inactive; negative

## FCCl
Species: RAT, Strain/Sex: WISTAR/MALE,FEMALE, Route: GAVAGE, Dose: 300 MG/KG IN CORN OIL 5/WK FOR 52 WK, Tumor Site: Type of Lesion: STOMACH: SQUAMOUS CELL CARCINOMA, FIBROSARCOMA
  carcinogen call: active; positive

## ClCCCl
Species: MOUSE, Strain/Sex: B6C3F1/FEMALE, Route: GAVAGE, Dose: 0, 149, 299 MG/KG TWA,5 D/WK FOR 78 WK (STUDY DURATION: 91 WK), Dose: 0, 149, 299 MG/KG TWA,5 D/WK FOR 78 WK (STUDY DURATION: 91 WK), Tumor Site: Type of Lesion: LUNG: ALVEOLAR/BRONCHIOLAR ADENOMA, UTERUS (ENDOMETRIUM): STROMAL POLYP, STROMAL SARCOMA, MAMMARY GLAND: ADENOCARCINOMA, Tumor Site: Type of Lesion: LUNG: ALVEOLAR/BRONCHIOLAR ADENOMA, UTERUS (ENDOMETRIUM): STROMAL POLYP, STROMAL SARCOMA, MAMMARY GLAND: ADENOCARCINOMA
  carcinogen call: active; positive
Species: MOUSE, Strain/Sex: B6C3F1/MALE, Route: GAVAGE, Dose: 0, 97, 195 MG/KG TWA, 5 D/WK FOR 78 WK (STUDY DURATION: 90-91 WK), Dose: 0, 97, 195 MG/KG TWA, 5 D/WK FOR 78 WK (STUDY DURATION: 90-91 WK), Tumor Site: Type of Lesion: LUNG: ALVEOLAR/BRONCHIOLAR ADENOMA
  carcinogen call: active; positive
Species: MOUSE, Strain/Sex: EU-PIM-1/FEMALE, Route: GAVAGE, Dose: 0, 100, 300 MG/KG 1/D FOR 40 WK (STUDY DURATION: 40 WK), Dose: 0, 100, 300 MG/KG 1/D FOR 40 WK (STUDY DURATION: 40 WK), Tumor Site: Type of Lesion: LYMPHATIC SYSTEM: LYMPHOMA
  carcinogen call: active; positive
Species: MOUSE, Strain/Sex: EU-PIM-1/MALE, Route: GAVAGE, Dose: 0, 100, 300 MG/KG 1/D FOR 40 WK (STUDY DURATION: 40 WK), Dose: 0, 100, 300 MG/KG 1/D FOR 40 WK (STUDY DURATION: 40 WK)
  carcinogen call: inactive; negative
Species: MOUSE, Strain/Sex: ICR/FEMALE, Route: DERMAL, Dose: 42, 126 MG/APPL/MOUSE IN 0.2 ML ACETONE 3/WK, Tumor Site: Type of Lesion: LUNG: BENIGN PAPILLOMA
  carcinogen call: active; positive
Species: RAT, Strain/Sex: OSBORNE-MENDEL/FEMALE, Route: GAVAGE, Dose: 0, 47, 95 MG/KG TWA, 5 D/WK FOR 69 WK (STUDY DURATION: 93-110 WK), Dose: 0, 47, 95 MG/KG TWA, 5 D/WK FOR 69 WK (STUDY DURATION: 93-110 WK), Tumor Site: Type of Lesion: MAMMARY GLAND: ADENOCARCINOMA OR FIBROADENOMA
  carcinogen call: active; positive
Species: RAT, Strain/Sex: OSBORNE-MENDEL/MALE, Route: GAVAGE, Dose: 0, 47, 95 MG/KG TWA, 5 D/WK FOR 69 WK (STUDY DURATION: 101-110 WK), Dose: 0, 47, 95 MG/KG TWA, 5 D/WK FOR 69 WK (STUDY DURATION: 101-110 WK), Tumor Site: Type of Lesion: INTEGUMENTARY SYSTEM (SUBCUTANEOUS TISSUE): FIBROMA, FORESTOMACH: SQUAMOUS CELL CARCINOMA, BLOOD VESSELS: HEMANGIOSARCOM, Tumor Site: Type of Lesion: INTEGUMENTARY SYSTEM (SUBCUTANEOUS TISSUE): FIBROMA, FORESTOMACH: SQUAMOUS CELL CARCINOMA, BLOOD VESSELS: HEMANGIOSARCOM
  carcinogen call: active; positive
Species: RAT, Strain/Sex: SPRAGUE-DAWLEY/FEMALE, Route: INHALATION, Dose: 0, 5, 10, 50, 150, 250 PPM IN AIR 7 HR/D 5 D/WK FOR 78 WK (STUDY DURATION: LIFETIME), Dose: 0, 5, 10, 50, 150, 250 PPM IN AIR 7 HR/D 5 D/WK FOR 78 WK (STUDY DURATION: LIFETIME), Tumor Site: Type of Lesion: [BRAIN WAS ONLY SITE EVALUATED]
  carcinogen call: inactive; negative
Species: RAT, Strain/Sex: SPRAGUE-DAWLEY/FEMALE, Route: INHALATION, Dose: 0, 50 PPM 7 HR/D 5 D/WK FOR 2 YR (STUDY DURATION: 2 YR)
  carcinogen call: inactive; negative
Species: RAT, Strain/Sex: SPRAGUE-DAWLEY/MALE, Route: INHALATION, Dose: 0, 5, 10, 50, 150, 250 PPM IN AIR 7 HR/D 5 D/WK FOR 78 WK (STUDY DURATION: LIFETIME), Dose: 0, 5, 10, 50, 150, 250 PPM IN AIR 7 HR/D 5 D/WK FOR 78 WK (STUDY DURATION: LIFETIME), Tumor Site: Type of Lesion: [BRAIN WAS ONLY SITE EVALUATED]
  carcinogen call: inactive; negative
Species: RAT, Strain/Sex: SPRAGUE-DAWLEY/MALE, Route: INHALATION, Dose: 0, 50 PPM 7 HR/D 5 D/WK FOR 2 YR (STUDY DURATION: 2 YR)
  carcinogen call: inactive; negative

## O=[N+]([O-])c1ccc2c3c1ccc1cccc(c13)[C@@H]1O[C@H]21
Species: MOUSE, Strain/Sex: B6C3F1/FEMALE, Route: INTRAPERITONEAL, Dose: 0, 7 NMOL (TOTAL DOSE), 1/7, 2/7 AND 4/7 OF THE TOTAL DOSE ADMINISTERED WITHIN 24 HR OF BIRTH AND AT 8 AND 15 D OF AGE
  carcinogen call: inactive; negative
Species: MOUSE, Strain/Sex: B6C3F1/MALE, Route: INTRAPERITONEAL, Dose: 0, 7 NMOL (TOTAL DOSE), 1/7, 2/7 AND 4/7 OF THE TOTAL DOSE ADMINISTERED WITHIN 24 HR OF BIRTH AND AT 8 AND 15 D OF AGE
  carcinogen call: inactive; negative
